Test results published in article PMC9558907, “Synthesis and pharmacological evaluation of newly detected synthetic cannabinoid receptor agonists AB-4CN-BUTICA, MMB-4CN-BUTINACA, MDMB-4F-BUTICA, MDMB-4F-BUTINACA and their analogs” (Frontiers in Psychiatry, 2022).

Experiments:
human CB1 [1] = target: T1, human CB1 (Homo sapiens, UniProt P21554); test: fluorescence-based membrane potential assay (GIRK activation) in AtT20 cells; assay type: cell-based; set-up: expressed in transfected cells; host or cells: mouse AtT20 FlpIn cells; settings: for hCB1 Emax ±SEM: normalised to 1 μM CP55,940; for hCB1 maximal response at 10 μM (footnote d): highest concentration tested, curve not fitted
T1 sequence (P21554 whole entry): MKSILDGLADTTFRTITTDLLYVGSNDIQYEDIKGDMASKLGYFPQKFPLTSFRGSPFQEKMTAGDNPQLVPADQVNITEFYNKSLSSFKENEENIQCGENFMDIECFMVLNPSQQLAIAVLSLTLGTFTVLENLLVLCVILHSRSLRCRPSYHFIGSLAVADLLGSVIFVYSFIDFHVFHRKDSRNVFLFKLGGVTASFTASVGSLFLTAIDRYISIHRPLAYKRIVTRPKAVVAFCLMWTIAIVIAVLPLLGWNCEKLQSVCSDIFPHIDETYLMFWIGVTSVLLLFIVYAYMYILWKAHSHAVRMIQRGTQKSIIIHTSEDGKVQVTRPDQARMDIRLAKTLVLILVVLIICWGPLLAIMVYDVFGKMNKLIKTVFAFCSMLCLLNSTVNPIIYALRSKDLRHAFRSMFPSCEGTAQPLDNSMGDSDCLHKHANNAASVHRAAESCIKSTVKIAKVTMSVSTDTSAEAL

human CB2 [2] = target: T2, human CB2 (Homo sapiens, UniProt P34972); test: as above; assay type: cell-based; set-up: expressed in transfected cells; host or cells: mouse AtT20 FlpIn cells; settings: for hCB2 Emax ±SEM: normalised to 1 μM CP55,940
T2 sequence (P34972 whole entry): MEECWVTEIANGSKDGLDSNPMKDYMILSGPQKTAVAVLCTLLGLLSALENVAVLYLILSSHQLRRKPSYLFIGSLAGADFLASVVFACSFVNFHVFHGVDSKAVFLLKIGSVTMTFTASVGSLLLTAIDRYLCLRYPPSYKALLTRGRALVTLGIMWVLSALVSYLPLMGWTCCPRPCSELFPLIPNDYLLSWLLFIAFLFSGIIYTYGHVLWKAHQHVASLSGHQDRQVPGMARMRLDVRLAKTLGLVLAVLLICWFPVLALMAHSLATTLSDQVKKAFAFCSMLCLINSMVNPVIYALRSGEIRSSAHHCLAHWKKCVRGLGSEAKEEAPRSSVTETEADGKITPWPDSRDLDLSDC

human CB1 [3] = target: T1, human CB1; test: competitive radioligand binding assay, displacement of [3H]CP55,940, HEK cell membranes; set-up: expressed in transfected cells; host or cells: HEK293 cells, P2 membrane preparation; settings: [3H]CP55,940 1 nM
human CB2 [4] = target: T2, human CB2; test: as above; set-up: expressed in transfected cells; host or cells: HEK293 cells, P2 membrane preparation; settings: [3H]CP55,940 1 nM
[5] = hCB1 EC50, AtT20-hCB1, value in brackets after pEC50
[6] = hCB2 EC50, AtT20-hCB2, value in brackets after pEC50
[7] = hCB1 Ki, value in brackets after pKi
[8] = hCB2 Ki, value in brackets after pKi
[9] = AtT20-hCB1, DNC = did not converge, ND = < 50% change in fluorescence at 10 μM
[10] = hCB1 pEC50 ±SEM, AtT20-hCB1, DNC = did not converge, ND = < 50% change in fluorescence at 10 μM
[11] = hCB1 pKi ±SEM, mean ± SEM of 3 to 6 independent experiments
[12] = hCB2 pKi ±SEM, mean ± SEM of 3 to 6 independent experiments

Structure (SMILES)	melting point	hCB1 Emax ±SEM (human CB1 [1]; AtT20-hCB1)	EC50 (human CB1 [1]; [5])	hCB2 Emax ±SEM (human CB2 [2]; AtT20-hCB2)	EC50 (human CB2 [2]; [6])	Ki (human CB1 [3]; [7])	Ki (human CB2 [4]; [8])	hCB1 maximal response at 10 μM (footnote d) (human CB1 [1]; AtT20-hCB1)	hCB1 maximal response at 10 μM (footnote d) (human CB1 [1]; AtT20-hCB1, listed as APP-4CN-BUTICA (10))	hCB1 pEC50 ±SEM (human CB1 [1]; [9])	EC50 (human CB1 [1]; [10])	hCB1 maximal response at 10 μM (footnote d) (human CB1 [1]; AtT20-hCB1, listed as APP-4CN-BUT7AICA (16))	hCB2 Emax ±SEM (human CB2 [2]; AtT20-hCB2, listed as APP-4CN-BUT7AICA (16))	EC50 (human CB2 [2]; hCB2 pEC50 ±SEM, AtT20-hCB2)	Ki (human CB1 [3]; [11])	Ki (human CB2 [4]; [12])
CC(C)[C@H](NC(=O)c1cn(CCCCC#N)c2ccccc12)C(N)=O [Compound 5, (S)-N-(1-amino-3-methyl-1-oxobutan-2-yl)-1-(4-cyanobutyl)-1H-indole-3-carboxamide]	177 to 180 °C	111 ± 5 % CP55,940	400 nM	100 ± 2 % CP55,940	75.9 nM	550 nM	603 nM	–	–	–	–	–	–	–	–	–
CC(C)(C)[C@H](NC(=O)c1cn(CCCCC#N)c2ccccc12)C(N)=O [Compound 9, (S)-N-(1-amino-3,3-dimethyl-1-oxobutan-2-yl)-1-(4-cyanobutyl)-1H-indole-3-carboxamide]	101 to 103 °C	115 ± 5 % CP55,940	10.2 nM	106 ± 6 % CP55,940	10.4 nM	6.8 nM	5.5 nM	–	–	–	–	–	–	–	–	–
N#CCCCCn1cc(C(=O)N[C@@H](Cc2ccccc2)C(N)=O)c2ccccc21 [Compound 10, (S)-N-(1-amino-1-oxo-3-phenylpropan-2-yl)-1-(4-cyanobutyl)-1H-indole-3-carboxamide]	84 to 85 °C	–	–	95 ± 3 % CP55,940	98.4 nM	3310 nM	776 nM	submaximal agonist activity	85 ± 3^d % CP55,940	DNC^b	–	–	–	–	–	–
CC(C)(C)[C@H](NC(=O)c1nn(CCCCC#N)c2ccccc12)C(N)=O [Compound 12, (S)-N-(1-amino-3,3-dimethyl-1-oxobutan-2-yl)-1-(4-cyanobutyl)-1H-indazole-3-carboxamide]	82 to 86 °C	109 ± 2 % CP55,940	–	96 ± 2 % CP55,940	1.76 nM	8.13 nM	2.57 nM	–	–	–	0.331 nM	–	–	–	–	–
CC(C)[C@H](NC(=O)c1cn(CCCCC#N)c2ncccc12)C(N)=O [Compound 14, (S)-N-(1-amino-3-methyl-1-oxobutan-2-yl)-1-(4-cyanobutyl)-1H-pyrrolo[2,3-b]pyridine-3-carboxamide]	181 to 182 °C	–	–	87 ± 5 % CP55,940	390 nM	2570 nM	3240 nM	80 ± 3^d % CP55,940	–	DNC^b	–	–	–	–	–	–
CC(C)(C)[C@H](NC(=O)c1cn(CCCCC#N)c2ncccc12)C(N)=O [Compound 15, (S)-N-(1-amino-3,3-dimethyl-1-oxobutan-2-yl)-1-(4-cyanobutyl)-1H-pyrrolo[2,3-b]pyridine-3-carboxamide]	93 to 94 °C	102 ± 4 % CP55,940	14 nM	96 ± 1 % CP55,940	6.09 nM	155 nM	145 nM	–	–	–	–	–	–	–	–	–
N#CCCCCn1cc(C(=O)N[C@@H](Cc2ccccc2)C(N)=O)c2cccnc21 [Compound 16, (S)-N-(1-amino-1-oxo-3-phenylpropan-2-yl)-1-(4-cyanobutyl)-1H-pyrrolo[2,3-b]pyridine-3-carboxamide]	182 to 184 °C	–	–	–	232 nM	–	1860 nM	submaximal agonist activity	–	–	–	25 ± 3^d % CP55,940	72 ± 3 % CP55,940	229 nM	> 10000 nM	–
COC(=O)[C@@H](NC(=O)c1cn(CCCCC#N)c2ccccc12)C(C)(C)C [Compound 18, methyl (S)-2-(1-(4-cyanobutyl)-1H-indole-3-carboxamido)-3,3-dimethylbutanoate]	124 to 127 °C	111 ± 3 % CP55,940	2.68 nM	101 ± 4 % CP55,940	4.04 nM	6.61 nM	2.04 nM	–	–	–	–	–	–	–	–	–
COC(=O)[C@H](Cc1ccccc1)NC(=O)c1cn(CCCCC#N)c2ccccc12 [Compound 19, methyl (1-(4-cyanobutyl)-1H-indole-3-carbonyl)-L-phenylalaninate]	144 to 146 °C	109 ± 3 % CP55,940	35.5 nM	105 ± 3 % CP55,940	8.44 nM	85.1 nM	8.71 nM	–	–	–	–	–	–	–	–	–
COC(=O)[C@H](Cc1ccccc1)NC(=O)c1nn(CCCCC#N)c2ccccc12 [Compound 21, methyl (1-(4-cyanobutyl)-1H-indazole-3-carbonyl)-L-phenylalaninate]	82.5 to 84.5 °C	115 ± 3 % CP55,940	8.72 nM	100 ± 2 % CP55,940	3.24 nM	20.9 nM	3.8 nM	–	–	–	–	–	–	–	–	–
COC(=O)[C@@H](NC(=O)c1cn(CCCCC#N)c2ncccc12)C(C)(C)C [Compound 23, methyl (S)-2-(1-(4-cyanobutyl)-1H-pyrrolo[2,3-b]pyridine-3-carboxamido)-3,3-dimethylbutanoate]	–	114 ± 5 % CP55,940	10.3 nM	106± 5 % CP55,940	12.6 nM	9.2 nM	2.4 nM	–	–	–	–	–	–	–	9.33 nM	2.45 nM
COC(=O)[C@H](Cc1ccccc1)NC(=O)c1cn(CCCCC#N)c2ncccc12 [Compound 24, methyl (1-(4-cyanobutyl)-1H-pyrrolo[2,3-b]pyridine-3-carbonyl)-L-phenylalaninate]	102 to 105 °C	110 ± 5 % CP55,940	189 nM	104 ± 2 % CP55,940	14.3 nM	380 nM	55 nM	–	–	–	186 nM	–	–	–	–	–
CC(C)[C@H](NC(=O)c1cn(CCCCF)c2ncccc12)C(N)=O [Compound 31, (S)-N-(1-amino-3-methyl-1-oxobutan-2-yl)-1-(4-fluorobutyl)-1H-pyrrolo[2,3-b]pyridine-3-carboxamide]	–	–	–	98 ± 4 % CP55,940	137 nM	–	1400 nM	82 ± 4^d % CP55,940	–	DNC^b	–	–	–	–	> 10000 nM	1380 nM
COC(=O)[C@@H](NC(=O)c1nn(CCCCF)c2ccccc12)C(C)C [Compound 36, methyl (1-(4-fluorobutyl)-1H-indazole-3-carbonyl)-L-valinate]	–	103 ± 2 % CP55,940	3.93 nM	100 ± 2 % CP55,940	3.76 nM	–	1.6 nM	–	–	–	–	–	–	–	31.6 nM	1.55 nM
COC(=O)[C@H](Cc1ccccc1)NC(=O)c1nn(CCCCF)c2ccccc12 [Compound 37, methyl (1-(4-fluorobutyl)-1H-indazole-3-carbonyl)-L-phenylalaninate]	–	106 ± 3 % CP55,940	5.62 nM	101 ± 3 % CP55,940	4.65 nM	–	0.5 nM	–	–	–	–	–	–	–	33.9 nM	0.457 nM
